In US12084420B2, “Indoline compounds for inhibiting KIF18A” (Volastra Therapeutics, Inc., priority 2021, dated 2024):
Where two headings read alike, the source gives them in different places.

Columns and labels:
[1] = tested on: HCC15 tumor cells implanted in SCID Beige mice; assay: In vivo activity, HCC15 tumor xenograft, tumor growth inhibition; set-up: species or system mouse; conditions: HCC15 model
Experimental: (§1) Assessment of In Vivo Activity
(§2) OVCAR-3 (ATCC) tumor cells were maintained in vitro in RPMI-1640 medium supplemented with 20% fetal bovine serum, 0.01 mg/mL bovine insulin and 1% Anti-Anti at 37° C. in an atmosphere of 5% CO2 in air. HCC15 (DSMZ) tumor cells were maintained in vitro in RPMI 1640 medium supplemented with 10% fetal bovine serum and 1% Anti-Anti at 37° C. in an atmosphere of 5% CO2 in air.
(§3) The tumor cells were sub-cultured twice weekly. The cells growing in an exponential growth phase were harvested and counted for tumor inoculation.
(§4) Tumor cells (10×10^6) in 0.2 mL of PBS mixed with Matrigel (50:50) were inoculated subcutaneously on the right flank of each mouse. When the average tumor volume reached 110-175 mm^3, animals were randomized into groups of 10 and treatment started. OVCAR-3 cells were implanted in Balb/C nude mice, and HCC15 cell were implanted in SCID Beige mice.
(§5) Compounds were dosed once or twice a day (12 h) orally. Tumor Growth Inhibition (TGI) was calculated using the formula: TGI (%)=[1−(TN−T0)/(VN−V0)]×100; TN is the average tumor volume of a treatment group at the indicated timepoint, T0 is the average tumor volume of the treatment group on treatment day 0, VN is the average tumor volume of the vehicle control group at the indicated timepoint, and V0 is the average tumor volume of the vehicle group on treatment day 0. P value was calculated based on tumor size by One-Way ANOVA with GraphPad Prism 9.4.0 compared with the vehicle group, respectively. **** indicates p<0.0001.
(§6) The tumor volume of vehicle- and compound-treated mice as a function of time after start of treatment and the results of treatments with selected compounds on SCID Beige mice or nude mice implanted with HCC15 or OVCAR-3 are shown in FIGS. 1A-1E.

[2] = molecular target: KIF18a-Microtubule Complex (Homo sapiens (Human), UniProt Q8NI77); assay: Binding kinetics to KIF18a-microtubule complex (global progress curve analysis); conditions: for kon (on-rate from binding kinetics assay) / koff (off-rate from binding kinetics assay): global progress curve analysis; for Ki: read-out: KI (determined from binding kinetic assay koff/kon), koff/kon; for koff: read-out: koff (off-rate from binding kinetics assay)
KIF18a-Microtubule Complex, sequence (Q8NI77 whole entry, looked up): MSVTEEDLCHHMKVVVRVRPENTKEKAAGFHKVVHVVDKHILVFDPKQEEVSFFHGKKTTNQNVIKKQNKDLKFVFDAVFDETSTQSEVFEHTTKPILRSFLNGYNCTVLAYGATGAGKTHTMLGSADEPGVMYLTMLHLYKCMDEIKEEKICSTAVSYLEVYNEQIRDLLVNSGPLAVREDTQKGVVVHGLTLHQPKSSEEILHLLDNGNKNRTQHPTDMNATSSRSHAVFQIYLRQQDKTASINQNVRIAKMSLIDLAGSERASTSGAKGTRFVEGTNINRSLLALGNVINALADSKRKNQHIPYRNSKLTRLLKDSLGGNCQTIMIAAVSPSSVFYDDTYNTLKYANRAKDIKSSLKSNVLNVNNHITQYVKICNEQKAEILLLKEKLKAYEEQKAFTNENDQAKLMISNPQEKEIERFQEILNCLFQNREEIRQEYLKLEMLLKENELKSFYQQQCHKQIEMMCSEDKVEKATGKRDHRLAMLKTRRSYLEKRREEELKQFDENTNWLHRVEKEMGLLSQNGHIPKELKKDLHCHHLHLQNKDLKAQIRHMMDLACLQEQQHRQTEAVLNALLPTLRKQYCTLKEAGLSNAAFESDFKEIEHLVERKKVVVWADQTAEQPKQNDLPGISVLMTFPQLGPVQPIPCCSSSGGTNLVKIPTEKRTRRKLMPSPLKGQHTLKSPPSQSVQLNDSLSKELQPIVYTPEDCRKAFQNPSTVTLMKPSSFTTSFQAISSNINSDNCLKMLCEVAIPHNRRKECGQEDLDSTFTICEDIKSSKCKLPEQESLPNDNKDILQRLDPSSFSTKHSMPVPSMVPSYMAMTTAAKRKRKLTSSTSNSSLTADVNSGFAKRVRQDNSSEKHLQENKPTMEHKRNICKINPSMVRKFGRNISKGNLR
KIF18a-Microtubule Complex, sequence (Q2XVP4 whole entry partner, looked up): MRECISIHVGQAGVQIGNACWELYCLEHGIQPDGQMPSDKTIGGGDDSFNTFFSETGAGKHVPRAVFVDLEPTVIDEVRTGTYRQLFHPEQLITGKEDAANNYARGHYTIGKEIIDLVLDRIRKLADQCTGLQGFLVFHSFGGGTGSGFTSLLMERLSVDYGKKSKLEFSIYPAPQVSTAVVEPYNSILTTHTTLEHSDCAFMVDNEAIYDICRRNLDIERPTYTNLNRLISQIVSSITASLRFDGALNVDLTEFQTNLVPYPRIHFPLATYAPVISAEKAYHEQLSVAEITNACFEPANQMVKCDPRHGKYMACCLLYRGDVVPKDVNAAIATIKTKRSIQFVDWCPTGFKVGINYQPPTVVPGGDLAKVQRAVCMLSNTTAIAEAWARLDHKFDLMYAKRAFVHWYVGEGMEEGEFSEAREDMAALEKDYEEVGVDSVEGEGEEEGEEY
KIF18a-Microtubule Complex, sequence (P02554 whole entry partner, looked up): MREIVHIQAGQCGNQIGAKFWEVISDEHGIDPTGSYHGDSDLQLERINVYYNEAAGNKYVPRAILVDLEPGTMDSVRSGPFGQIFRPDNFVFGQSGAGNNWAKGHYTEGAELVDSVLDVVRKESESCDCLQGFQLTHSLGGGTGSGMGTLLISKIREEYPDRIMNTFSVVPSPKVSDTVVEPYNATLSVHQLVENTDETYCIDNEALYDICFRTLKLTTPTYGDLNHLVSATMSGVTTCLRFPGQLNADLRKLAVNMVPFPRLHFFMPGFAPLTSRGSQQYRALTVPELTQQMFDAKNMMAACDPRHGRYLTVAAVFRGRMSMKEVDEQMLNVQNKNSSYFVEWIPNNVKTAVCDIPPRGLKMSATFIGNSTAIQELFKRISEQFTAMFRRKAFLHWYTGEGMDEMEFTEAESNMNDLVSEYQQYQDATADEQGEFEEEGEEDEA
Summary of the method: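 kon and koff determined by global progress curve analysis, with ADP formation measured by ADP-Glo. Time- and dose-dependent progress curves were globally fitted to a Michaelis-Menten model with one-step slow-binding inhibition.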

[3] = tested on: OVCAR-3 tumor cells implanted in Balb/C nude mice; assay: In vivo activity, OVCAR-3 tumor xenograft, tumor growth inhibition; set-up: species or system mouse; conditions: OVCAR3 model
Experimental: as §1, §2, §3, §4, §5, §6

NIH:OVCAR-3 cells = assay: Cell viability of KIF18a-sensitive cell lines, NIH:OVCAR-3 (Cell Titre-Glo, 7 days); assay type: cell-based; conditions: NIH-OVCAR3 cells, 7 days, Cell Titre-Glo, read-out: NIH-OVCAR3 IC50
Experimental: (§7) Cell Viability of KIF18a-Sensitive Cell Lines
(§8) Cell lines were seeded as follows 24 hours before compound treatment: HCC15 (Korean Cell Line Bank) 600 cell/well, 95 μL of RPMI-1640 media supplemented with 100 units/mL penicillin, 100 units/mL streptomycin and 10% FBS; NIH:OVCAR-3 (ATCC), 1000 cell/well, 95 μL of RPMI-1640 media supplemented with 100 units/mL penicillin, 100 units/mL streptomycin, 0.01 mg/mL bovine insulin, and 20% FBS; JIMT-1 (Addexbio) 1000 cell/well, 95 μL of DMEM media supplemented with 100 units/mL penicillin, 100 units/mL streptomycin, and 10% FBS.
(§9) Test compounds were added to cells in a 20× dilution scheme by adding 5 μL of serially diluted compound to the plate, and the treated cells were incubated for an additional 7 days in a 37° C., 5% CO2 incubator. DMSO was used as the negative control (0% effect), and wells omitting cells were used as the positive control (100% effect). The cells were incubated for seven days, and cell viability determined via the Promega Cell Titre-Glo® Assay kit. Luminescence units were converted to ATP concentrations via an ATP standard curve (10 point, 2-fold dilution from 5 uM). % Inhibition was calculated for each well as: ([max−min]−[test−min])/[max−min]. IC50 values were calculated from concentration vs. % Inhibition data via a four-parameter variable slope model.

JIMT-1 cells = assay: Cell viability of KIF18a-sensitive cell lines, JIMT-1 (Cell Titre-Glo, 7 days); assay type: cell-based; conditions: JIMT-1 cells, 7 days, Cell Titre-Glo, read-out: JIMT-1 IC50
Experimental: as §7, §8, §9

HCC15 cells = assay: Cell viability of KIF18a-sensitive cell lines, HCC15 (Cell Titre-Glo, 7 days); assay type: cell-based; conditions: HCC-15 cells, 7 days, Cell Titre-Glo, read-out: HCC-15 IC50
Summary of the method: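 Seeding was 24 h before dosing: HCC15 at 600 cells/well in RPMI-1640/10% FBS, OVCAR-3 at 1000 cells/well in RPMI-1640/20% FBS plus insulin, JIMT-1 at 1000 cells/well in DMEM/10% FBS. After serially diluted compound, cells grew 7 days at 37° C. Cell Titre-Glo luminescence was converted to ATP; IC50 came from a four-parameter fit.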

hKIF18A (1-374) = hKIF18A (1-374) (Homo sapiens (Human), UniProt Q8NI77); assay: Inhibition of KIF18A microtubule-dependent ATPase activity (ADP-Glo)
hKIF18A (1-374), sequence (Q8NI77 whole entry, looked up): as the sequence (Q8NI77 whole entry, looked up) above
hKIF18A (1-374), sequence (Q2XVP4 whole entry partner, looked up): as the sequence (Q2XVP4 whole entry partner, looked up) above
hKIF18A (1-374), sequence (P02554 whole entry partner, looked up): as the sequence (P02554 whole entry partner, looked up) above

[4] = KIF18A microtubule-dependent ATPase activity, biochemical assay

kon (on-rate from binding kinetics assay) [2] [M⁻¹ s⁻¹]	disc. t1/2 (dissociation half-life ln(2)/koff) [2] [h]	Ki [2] [nM]	koff [2] [s⁻¹]	IC50 (NIH:OVCAR-3 cells; Homo sapiens, OVCAR-3, 168 h) [nM]	IC50 (HCC15 cells; HCC15, 168 h) [nM]	IC50 (hKIF18A (1-374); [4]) [nM]	Structure (SMILES)	IC50 (JIMT-1 cells; Homo sapiens, 168 h) [nM]	koff (off-rate from binding kinetics assay) [2] [s⁻¹]	IC50 (NIH:OVCAR-3 cells) [nM]	IC50 (JIMT-1 cells) [nM]	IC50 (HCC15 cells) [nM]	further results
15000	40	0.34	5e-06	5.1	5.1	16	CCS(=O)(=O)Nc1ccc2c(c1)C1(CCC3(CC3)CC1)CN2C(=O)c1cccc(S(=O)(=O)NC(C)(C)C)c1 [Compound 134, N-(tert-butyl)-3-(5″-(ethylsulfonamido)dispiro[cyclopropane-1,1′-cyclohexane-4′,3″-indoline]-1″-carbonyl)benzenesulfonamide]	4					TGI ([1]; 10 mg/kg BID PO): 61 ± 10%; TGI ([1]; 30 mg/kg BID PO): 89 ± 7%; TGI ([1]; 60 mg/kg BID PO): 94 ± 5%; TGI ([3]; 10 mg/kg BID PO): 60 ± 17%; TGI ([3]; 30 mg/kg BID PO, subfigure 1D): 111 ± 1%; TGI ([3]; 30 mg/kg BID PO, subfigure printed 1R): 110 ± 1%; TGI ([3]; 30 mg/kg QD PO): 104 ± 7%; TGI ([3]; 60 mg/kg BID PO): 112 ± 1%; TGI ([3]; 60 mg/kg QD PO): 109 ± 2%
10300	5.7	3.3	3.33e-05	40	43	21	CS(=O)(=O)Nc1ccc2c(c1)C1(CCC3(CC3)CC1)CN2C(=O)c1cccc(S(=O)(=O)C2CC(F)(F)C2)c1 [Compound 322, N-(1″-(3-((3,3-difluorocyclobutyl)sulfonyl)benzoyl)dispiro[cyclopropane-1,1′-cyclohexane-4′,3″-indolin]-5″- yl)methanesulfonamide]	32					
18300	10	0.96	1.86e-05	21	21	8.3	CS(=O)(=O)Nc1ccc2c(c1)C1(CCC3(CC3)CC1)CN2C(=O)c1cccc(S(=O)(=O)N2CC(F)(F)C2)c1 [Compound 257, N-(1″-(3-((3,3-difluoroazetidin-1-yl)sulfonyl)benzoyl)dispiro[cyclopropane-1,1′-cyclohexane-4′,3″-indolin]-5″- yl)methanesulfonamide]	12					
10600	38	0.55	5e-06	9.7	11	11	CC(C)(C)NS(=O)(=O)c1cccc(C(=O)N2CC3(CCC4(CC4)CC3)c3cc(NS(C)(=O)=O)ccc32)c1 [Compound 22, N-(tert-butyl)-3-(5″- (methylsulfonamido)dispiro[cyclo-propane-1,1′-cyclohexane-4′,3″-indoline]-1″-carbonyl)benzenesulfonamide]	7.8					TGI ([1]; 10 mg/kg BID PO): 30 ± 15%; TGI ([1]; 30 mg/kg BID PO): 72 ± 6%; TGI ([1]; 60 mg/kg BID PO): 82 ± 9%; TGI ([3]; 10 mg/kg QD PO): 24 ± 26%; TGI ([3]; 30 mg/kg QD PO): 72 ± 17%; TGI ([3]; 60 mg/kg QD PO): 82 ± 10%; IC50 (hKIF18A (1-374)): 9.4 nM
10600	33	0.54	5.83e-06	8	7.5	20	CC(C)(C)NS(=O)(=O)c1cccc(C(=O)N2CC3(CCC4(CC4)CC3)c3cc(NS(=O)(=O)C4CC4)ccc32)c1 [Compound 160, N-(tert-butyl)-3-(5″- (cyclopropanesulfonamido)dispiro [cyclopropane-1,1′-cyclohexane-4′,3″- indoline]-1″- carbonyl)benzenesulfonamide]	5.4					
6390	7.9	0.26	2.44e-05	20	21	6.7	CS(=O)(=O)Nc1ccc2c(c1)C1(CCC3(CC3)CC1)CN2C(=O)c1cccc(S(=O)(=O)NC23CC(C2)C3)c1 [Compound 223, N-(bicyclo[1.1.1]pentan-1-yl)-3-(5″-(methylsulfonamido)dispiro[cyclopropane-1,1′-cyclohexane-4′,3″-indoline]-1″-carbonyl)benzenesulfonamide]	15					

Structure (SMILES)	kon (on-rate from binding kinetics assay) [2] [M⁻¹ s⁻¹]	disc. t1/2 (dissociation half-life ln(2)/koff) [2] [h]	Ki [2] [nM]	koff [2] [s⁻¹]	IC50 (NIH:OVCAR-3 cells; Homo sapiens, OVCAR-3, 168 h) [nM]	IC50 (HCC15 cells; HCC15, 168 h) [nM]	IC50 (hKIF18A (1-374); [4]) [nM]	IC50 (JIMT-1 cells; Homo sapiens, 168 h) [nM]	koff (off-rate from binding kinetics assay) [2] [s⁻¹]	IC50 (NIH:OVCAR-3 cells) [nM]	IC50 (JIMT-1 cells) [nM]	IC50 (HCC15 cells) [nM]	further results
CCS(=O)(=O)Nc1ccc2c(c1)[C@]1(CC[C@@H](C(F)F)CC1)CN2C(=O)c1cccc(S(=O)(=O)NC(C)(C)C)c1 [Compound 333a]	7780	53	0.47				18		3.61e-06	17	24	22	
CS(=O)(=O)Nc1ccc2c(c1)C1(CCC3(CC3)CC1)CN2C(=O)c1cccc([C@H](O)CC2CCC2)c1 (single isomer, unassigned) [Compound 305b]	106000	0.49	3.7				6.8		0.000389	69	40	60	
CS(=O)(=O)Nc1ccc2c(c1)C1(CCC3(CC3)CC1)CN2C(=O)c1cccc([C@@H](O)CC2CCC2)c1 (single isomer, unassigned) [Compound 305a]	97200	0.56	3.5				8.1		0.000361	90	52	74	
